# Test results published in patent US20240148821A1, “PHARMACEUTICAL USE OF CYCLIC PEPTIDE COMPOUND” (CHUGAI SEIYAKU KABUSHIKI KAISHA, priority 2021, published 2024).
# Numbered stars: 1 amine (or outer) side, 2 acyl side, 3 side chain; on linkers, the order of the positions; unused ones are H or OH. Bridge positions count the residues as written; N and C are the ends. Square brackets hold non-standard residues; d marks the D form. Peptide text beside a SMILES is read from it. * marks the point of attachment. hPhe(3-Cl-4-CF3) = N[C@@H](CCc1ccc(C(F)(F)F)c(Cl)c1)C(=O)O; Piperazinyl(4-(3-oxetanyl)) = C1OCC1N1CCN(*)CC1; X36 = O=C([C@H](Cc1cc(F)cc(Cl)c1)N[*:1])[*:2]; NMePhe(4-Cl) = CN[C@@H](Cc1ccc(Cl)cc1)C(=O)O; X131 = O=C([C@H](Cc1cccc(Br)c1F)N[*:1])[*:2]; Phe(3-I) = N[C@@H](Cc1cccc(I)c1)C(=O)O; NMe3Pal = CN[C@@H](Cc1cccnc1)C(=O)O; NMeY = CN[C@@H](Cc1ccc(O)cc1)C(=O)O; NMeCha = CN[C@@H](CC1CCCCC1)C(=O)O; NMeChg = CN[C@H](C(=O)O)C1CCCCC1; NMeF = CN[C@@H](Cc1ccccc1)C(=O)O; NMeD = CN[C@@H](CC(=O)O)C(=O)O; NMeL = CN[C@@H](CC(C)C)C(=O)O; NMeV = CN[C@H](C(=O)O)C(C)C; d(β3hA) = C[C@@H](N)CC(=O)O; NMeAbu = CC[C@H](NC)C(=O)O; Pip = O=C(O)[C@@H]1CCCCN1; Morpholide = C1CN(*)CCO1; NMeA = CN[C@@H](C)C(=O)O; NMeAib = CNC(C)(C)C(=O)O; Nle = CCCC[C@H](N)C(=O)O; Piperidide = C1CCN(*)CC1; Pra = C#CC[C@H](N)C(=O)O; Pyrrolidide = C1CCN(*)C1; Ac5c = NC1(C(=O)O)CCCC1; Aze = O=C(O)[C@@H]1CCN1; Sar = CNCC(=O)O; Propyl = CCC*
# Tested on: Human pancreatic cancer cell line AsPC-1 (G12D mutation Kras)
# Experiment: AsPC-1 cell growth inhibition (AsPC-1 CGI)
# Assay type: cell-based
# Details: read-out: AsPC-1 cell growth inhibition, 50% growth inhibitory concentration (IC50 value); 96 hours, CellTiter-Glo, values classified in ranges
# Method: Test compounds were serially dilated with dimethyl sulfoxide, and 200 nL was then dispensed to a U-bottom 96-well plate using Labcyte Echo. […] The cell suspension was dispensed to a. plate containing a test compound at 100 μL per well and incubated at 37° C. in a 5% carbon dioxide gas incubator. 96 hours later, 80 μL of CellTiter-Glo (Promega) was added to each well and fluorescence was measured.
row,SMILES,IC50 [nM]
1,CCCC[C@@H]1NC(=O)[C@H](CCc2ccc(C(F)(F)F)c(Cl)c2)NC(=O)CN(C)C(=O)[C@H](Cc2ccc(Cl)cc2)N(C)C(=O)[C@@H]2CCN2C(=O)CN(C)C(=O)[C@H]([C@@H](C)CC)NC(=O)[C@@H]2CCCCN2C(=O)C[C@@H](C(=O)N2CCCCC2)N(C)C(=O)[C@H](CC(C)C)NC(=O)C(C)(C)N(C)C1=O [Compound 352] ([Pip]I[Sar][Aze][NMePhe(4-Cl)][Sar][hPhe(3-Cl-4-CF3)][Nle][NMeAib]L[NMeD]-Piperidide; lactam N-11),> 500
2,CC[C@H](C)[C@@H]1NC(=O)[C@H](C)N(C)C(=O)C[C@@H](C(=O)N2CCOCC2)N(C)C(=O)[C@H](C2CCCCC2)N(C)C(=O)C2(CCCC2)NC(=O)[C@H](Cc2cccnc2)N(C)C(=O)[C@H](CCc2ccc(C(F)(F)F)c(Cl)c2)NC(=O)CN(C)C(=O)[C@H](CC2CCCCC2)N(C)C(=O)[C@@H]2CCN2C(=O)CN(C)C1=O [Compound 1703] ([NMeA]I[Sar][Aze][NMeCha][Sar][hPhe(3-Cl-4-CF3)][NMe3Pal][Ac5c][NMeChg][NMeD]-Morpholide; lactam N-11),> 500
3,C#CC[C@@H]1NC(=O)[C@H](Cc2cccc(I)c2)NC(=O)CN(C)C(=O)[C@H](Cc2ccc(OC)cc2)N(C)C(=O)CN(C)C(=O)CN(C)C(=O)[C@H]([C@@H](C)CC)NC(=O)[C@H](CC(C)C)N(C)C(=O)C[C@@H](C(=O)N2CCCCC2)N(C)C(=O)[C@H](CC(C)C)NC(=O)C(C)(C)N(C)C1=O [Compound 1169] ([NMeL]I[Sar][Sar][NMeY](Me)[Sar][Phe(3-I)][Pra][NMeAib]L[NMeD]-Piperidide; lactam N-11),> 500
4,CCCOC[C@@H]1NC(=O)[C@H](CC(C)C)N(C)C(=O)C[C@@H](C(=O)N2CCCCC2)N(C)C(=O)[C@H](C2CCCCC2)N(C)C(=O)C2(CCCC2)NC(=O)[C@@H]2CCCN2C(=O)[C@H](CCc2ccc(C(F)(F)F)c(Cl)c2)NC(=O)CN(C)C(=O)[C@H](CC2CCCCC2)N(C)C(=O)CN(C)C(=O)CN(C)C1=O [Compound 1736] ([NMeL]S(Propyl)[Sar][Sar][NMeCha][Sar][hPhe(3-Cl-4-CF3)]P[Ac5c][NMeChg][NMeD]-Piperidide; lactam N-11),> 500
5,CC[C@H](C)[C@@H]1NC(=O)[C@H](C)N(C)C(=O)C[C@@H](C(=O)N2CCCC2)N(C)C(=O)[C@H](CC(C)C)NC(=O)[C@H](Cc2ccccc2)N(C)C(=O)[C@H](C)NC(=O)[C@H](Cc2cccc(I)c2)NC(=O)CN(C)C(=O)[C@H](Cc2ccc(OC)cc2)N(C)C(=O)[C@@H]2CCN2C(=O)[C@H](C)N(C)C1=O [Compound 604] ([NMeA]I[NMeA][Aze][NMeY](Me)[Sar][Phe(3-I)]A[NMeF]L[NMeD]-Pyrrolidide; lactam N-11),> 500
6,CCCC[C@@H]1NC(=O)[C@H](Cc2cccc(Br)c2F)NC(=O)CN(C)C(=O)[C@H](Cc2ccc(OC)cc2)N(C)C(=O)[C@@H]2CCN2C(=O)[C@H](C)N(C)C(=O)[C@H]([C@@H](C)CC)NC(=O)[C@H](CC)N(C)C(=O)C[C@@H](C(=O)N2CCCCC2)N(C)C(=O)[C@H](CC(C)C)NC(=O)C(C)(C)N(C)C1=O [Compound 1304] ([NMeAbu]I[NMeA][Aze][NMeY](Me)[Sar][X131][Nle][NMeAib]L[NMeD]-Piperidide; lactam N-11),> 500
7,CC[C@H](C)[C@@H]1NC(=O)[C@H](CC(C)C)N(C)C(=O)C[C@@H](C(=O)N2CCCCC2)N(C)C(=O)[C@H](CC(C)C)NC(=O)C(C)(C)N(C)C(=O)[C@H](CC(C)C)NC(=O)[C@H](Cc2cccc(I)c2)NC(=O)CN(C)C(=O)[C@H](Cc2ccc(Cl)cc2)N(C)C(=O)CN(C)C(=O)CN(C)C1=O [Compound 295] ([NMeL]I[Sar][Sar][NMePhe(4-Cl)][Sar][Phe(3-I)]L[NMeAib]L[NMeD]-Piperidide; lactam N-11),> 500
8,CC[C@H](C)[C@@H]1NC(=O)[C@H](CC(C)C)N(C)C(=O)C[C@@H](C)NC(=O)[C@H](C(C)C)N(C)C(=O)C2(CCCC2)NC(=O)[C@@H]2CCCN2C(=O)[C@H](CCc2ccc(C(F)(F)F)c(Cl)c2)NC(=O)[C@H]2CCCN2C(=O)[C@H](CC2CCCCC2)N(C)C(=O)CN(C)C(=O)CN(C)C1=O [Compound 76] (cyclo([Ac5c][NMeV][d(β3hA)][NMeL]I[Sar][Sar][NMeCha][dP][hPhe(3-Cl-4-CF3)]P)),> 500
9,CCCC[C@@H]1NC(=O)[C@H](Cc2cc(F)cc(Cl)c2)NC(=O)CN(C)C(=O)[C@H](Cc2ccc(Cl)cc2)N(C)C(=O)CN(C)C(=O)CN(C)C(=O)[C@H]([C@@H](C)CC)NC(=O)[C@H](CC(C)C)N(C)C(=O)C[C@@H](C(=O)N2CCCCC2)N(C)C(=O)[C@H](CC(C)C)NC(=O)C(C)(C)N(C)C1=O [Compound 202] ([NMeL]I[Sar][Sar][NMePhe(4-Cl)][Sar][X36][Nle][NMeAib]L[NMeD]-Piperidide; lactam N-11),> 500
10,CC[C@H](C)[C@@H]1NC(=O)[C@H](CC(C)C)N(C)C(=O)C[C@@H](C(=O)N2CCN(C3COC3)CC2)NC(=O)[C@H](C(C)C)N(C)C(=O)C2(CCCC2)NC(=O)[C@@H]2CCCN2C(=O)[C@H](CCc2ccc(C(F)(F)F)c(Cl)c2)NC(=O)CN(C)C(=O)[C@H](CC2CCCCC2)N(C)C(=O)[C@@H]2CCN2C(=O)[C@H](C)N(C)C1=O [Compound 1294] ([NMeL]I[NMeA][Aze][NMeCha][Sar][hPhe(3-Cl-4-CF3)]P[Ac5c][NMeV]D-{Piperazinyl(4-(3-oxetanyl))}; lactam N-11),> 500
